Reference: ChEMBL document CHEMBL1146222, “Cyclic depsipeptides, ichthyopeptins A and B, from Microcystis ichthyoblabe” (J Nat Prod, 2007)
Converted amounts (≈) assume the structure as drawn.

Test system: Influenza A virus
Assay: Antiviral activity against Influenza A virus (A/WSN/33/London (H1N1)) in MDCK cells after 72 hrs by neutral red dye uptake assy
Assay type: functional, organism-based

With `NC12CC3CC(CC(C3)C1)C2` [AMANTADINE] as the compound, how does the IC50 read?
The IC50 was 15 µg/mL (≈ 99.2 µM).
